Columns and labels:
Format in all cases: functional
Bacillus pumilus [1] = assay: Antibacterial activity against Bacillus pumilus MTCC 1456 after 24 hr by broth dilution method; settings: MTCC 1456, 24 h
Penicillium chrysogenum [2] = assay: Antifungal activity against Penicillium chrysogenum MTCC 161 at 1500 ug/ml after 18 hr by cup-plate method; settings: MTCC 161, 18 h, read-out: DIZ
Bacillus pumilus [3] = assay: Antibacterial activity against Bacillus pumilus MTCC 1456 at 200 ug/ml after 18 hr by cup-plate method; settings: MTCC 1456, 18 h, read-out: DIZ
Pseudomonas fluorescens [4] = assay: Antibacterial activity against Pseudomonas fluorescens MTCC 2421 at 500 ug/ml after 18 hr by cup-plate method; settings: MTCC 2421, 18 h, read-out: DIZ
Bacillus pumilus [5] = assay: Antibacterial activity against Bacillus pumilus MTCC 1456 at 500 ug/ml after 18 hr by cup-plate method; settings: MTCC 1456, 18 h, read-out: DIZ
Bacillus subtilis [6] = assay: Antibacterial activity against Bacillus subtilis MTCC 441 after 24 hr by broth dilution method; settings: MTCC 441, 24 h
Escherichia coli [7] = assay: Antibacterial activity against Escherichia coli MTCC 1573 at 500 ug/ml after 18 hr by cup-plate method; settings: MTCC 1573, 18 h, read-out: DIZ
Pseudomonas aeruginosa [8] = assay: Antibacterial activity against Pseudomonas aeruginosa MTCC 424 at 1500 ug/ml after 18 hr by cup-plate method; settings: MTCC 424, 18 h, read-out: DIZ
Bacillus subtilis [9] = assay: Antibacterial activity against Bacillus subtilis MTCC 441 at 100 ug/ml after 18 hr by cup plate method; settings: MTCC 441, 18 h, read-out: DIZ
Micrococcus luteus [10] = assay: Antibacterial activity against Micrococcus luteus MTCC 1538 after 24 hr by broth dilution method; settings: MTCC 1538, 24 h
Micrococcus luteus [11] = assay: Antibacterial activity against Micrococcus luteus MTCC 1538 at 100 ug/ml after 18 hr by cup-plate method; settings: MTCC 1538, 18 h, read-out: DIZ
Penicillium chrysogenum [12] = assay: Antifungal activity against Penicillium chrysogenum MTCC 161 at 500 ug/ml after 18 hr by cup-plate method; settings: MTCC 161, 18 h, read-out: DIZ
Pseudomonas fluorescens [13] = assay: Antibacterial activity against Pseudomonas fluorescens MTCC 2421 at 1000 ug/ml after 18 hr by cup-plate method; settings: MTCC 2421, 18 h, read-out: DIZ
Escherichia coli [14] = assay: Antibacterial activity against Escherichia coli MTCC 1573 at 1500 ug/ml after 18 hr by cup-plate method; settings: MTCC 1573, 18 h, read-out: DIZ
Bacillus subtilis [15] = assay: Antibacterial activity against Bacillus subtilis MTCC 441 at 1500 ug/ml after 18 hr by cup plate method; settings: MTCC 441, 18 h, read-out: DIZ
Bacillus pumilus [16] = assay: Antibacterial activity against Bacillus pumilus MTCC 1456 at 1500 ug/ml after 18 hr by cup-plate method; settings: MTCC 1456, 18 h, read-out: DIZ
Staphylococcus aureus [17] = assay: Antibacterial activity against Staphylococcus aureus MTCC 1430 at 500 ug/ml after 18 hr by cup-plate method; settings: MTCC 1430, 18 h, read-out: DIZ
Escherichia coli [18] = assay: Antibacterial activity against Escherichia coli MTCC 1573 at 1000 ug/ml after 18 hr by cup-plate method; settings: MTCC 1573, 18 h, read-out: DIZ
Aspergillus niger [19] = assay: Antifungal activity against Aspergillus niger MTCC 2546 at 200 ug/ml after 18 hr by cup-plate method; settings: MTCC 2546, 18 h, read-out: DIZ
Escherichia coli [20] = assay: Antibacterial activity against Escherichia coli MTCC 1573 at 100 ug/ml after 18 hr by cup-plate method; settings: MTCC 1573, 18 h, read-out: DIZ
Bacillus subtilis [21] = assay: Antibacterial activity against Bacillus subtilis MTCC 441 at 1000 ug/ml after 18 hr by cup plate method; settings: MTCC 441, 18 h, read-out: DIZ
Aspergillus niger [22] = assay: Antifungal activity against Aspergillus niger MTCC 2546 at 1500 ug/ml after 18 hr by cup-plate method; settings: MTCC 2546, 18 h, read-out: DIZ
Penicillium chrysogenum [23] = assay: Antifungal activity against Penicillium chrysogenum MTCC 161 at 1000 ug/ml after 18 hr by cup-plate method; settings: MTCC 161, 18 h, read-out: DIZ
Staphylococcus aureus [24] = assay: Antibacterial activity against Staphylococcus aureus MTCC 1430 at 100 ug/ml after 18 hr by cup-plate method; settings: MTCC 1430, 18 h, read-out: DIZ
Staphylococcus aureus [25] = assay: Antibacterial activity against Staphylococcus aureus MTCC 1430 at 1500 ug/ml after 18 hr by cup-plate method; settings: MTCC 1430, 18 h, read-out: DIZ
Pseudomonas aeruginosa [26] = assay: Antibacterial activity against Pseudomonas aeruginosa MTCC 424 at 100 ug/ml after 18 hr by cup-plate method; settings: MTCC 424, 18 h, read-out: DIZ
Aspergillus niger [27] = assay: Antifungal activity against Aspergillus niger MTCC 2546 after 24 hr by broth dilution method; settings: MTCC 2546, 24 h
Pseudomonas aeruginosa [28] = assay: Antibacterial activity against Pseudomonas aeruginosa MTCC 424 at 1000 ug/ml after 18 hr by cup-plate method; settings: MTCC 424, 18 h, read-out: DIZ
Pseudomonas fluorescens [29] = assay: Antibacterial activity against Pseudomonas fluorescens MTCC 2421 at 100 ug/ml after 18 hr by cup-plate method; settings: MTCC 2421, 18 h, read-out: DIZ
Aspergillus niger [30] = assay: Antifungal activity against Aspergillus niger MTCC 2546 at 1000 ug/ml after 18 hr by cup-plate method; settings: MTCC 2546, 18 h, read-out: DIZ
Staphylococcus aureus [31] = assay: Antibacterial activity against Staphylococcus aureus MTCC 1430 after 24 hr by broth dilution method; settings: MTCC 1430, 24 h
Aspergillus niger [32] = assay: Antifungal activity against Aspergillus niger MTCC 2546 at 500 ug/ml after 18 hr by cup-plate method; settings: MTCC 2546, 18 h, read-out: DIZ
Escherichia coli [33] = assay: Antibacterial activity against Escherichia coli MTCC 1573 at 200 ug/ml after 18 hr by cup-plate method; settings: MTCC 1573, 18 h, read-out: DIZ
Staphylococcus aureus [34] = assay: Antibacterial activity against Staphylococcus aureus MTCC 1430 at 1000 ug/ml after 18 hr by cup-plate method; settings: MTCC 1430, 18 h, read-out: DIZ
Micrococcus luteus [35] = assay: Antibacterial activity against Micrococcus luteus MTCC 1538 at 1000 ug/ml after 18 hr by cup-plate method; settings: MTCC 1538, 18 h, read-out: DIZ
Penicillium chrysogenum [36] = assay: Antifungal activity against Penicillium chrysogenum MTCC 161 after 24 hr by broth dilution method; settings: MTCC 161, 24 h
Pseudomonas fluorescens [37] = assay: Antibacterial activity against Pseudomonas fluorescens MTCC 2421 at 200 ug/ml after 18 hr by cup-plate method; settings: MTCC 2421, 18 h, read-out: DIZ
Pseudomonas fluorescens [38] = assay: Antibacterial activity against Pseudomonas fluorescens MTCC 2421 after 24 hr by broth dilution method; settings: MTCC 2421, 24 h
Bacillus subtilis [39] = assay: Antibacterial activity against Bacillus subtilis MTCC 441 at 200 ug/ml after 18 hr by cup plate method; settings: MTCC 441, 18 h, read-out: DIZ
Bacillus pumilus [40] = assay: Antibacterial activity against Bacillus pumilus MTCC 1456 at 1000 ug/ml after 18 hr by cup-plate method; settings: MTCC 1456, 18 h, read-out: DIZ
Micrococcus luteus [41] = assay: Antibacterial activity against Micrococcus luteus MTCC 1538 at 500 ug/ml after 18 hr by cup-plate method; settings: MTCC 1538, 18 h, read-out: DIZ
Pseudomonas aeruginosa [42] = assay: Antibacterial activity against Pseudomonas aeruginosa MTCC 424 at 500 ug/ml after 18 hr by cup-plate method; settings: MTCC 424, 18 h, read-out: DIZ
Penicillium chrysogenum [43] = assay: Antifungal activity against Penicillium chrysogenum MTCC 161 at 200 ug/ml after 18 hr by cup-plate method; settings: MTCC 161, 18 h, read-out: DIZ
Aspergillus niger [44] = assay: Antifungal activity against Aspergillus niger MTCC 2546 at 100 ug/ml after 18 hr by cup-plate method; settings: MTCC 2546, 18 h, read-out: DIZ
Staphylococcus aureus [45] = assay: Antibacterial activity against Staphylococcus aureus MTCC 1430 at 200 ug/ml after 18 hr by cup-plate method; settings: MTCC 1430, 18 h, read-out: DIZ
Micrococcus luteus [46] = assay: Antibacterial activity against Micrococcus luteus MTCC 1538 at 200 ug/ml after 18 hr by cup-plate method; settings: MTCC 1538, 18 h, read-out: DIZ
Escherichia coli [47] = assay: Antibacterial activity against Escherichia coli MTCC 1573 after 24 hr by broth dilution method; settings: MTCC 1573, 24 h
Penicillium chrysogenum [48] = assay: Antifungal activity against Penicillium chrysogenum MTCC 161 at 100 ug/ml after 18 hr by cup-plate method; settings: MTCC 161, 18 h, read-out: DIZ
Pseudomonas fluorescens [49] = assay: Antibacterial activity against Pseudomonas fluorescens MTCC 2421 at 1500 ug/ml after 18 hr by cup-plate method; settings: MTCC 2421, 18 h, read-out: DIZ
Bacillus subtilis [50] = assay: Antibacterial activity against Bacillus subtilis MTCC 441 at 500 ug/ml after 18 hr by cup plate method; settings: MTCC 441, 18 h, read-out: DIZ
Bacillus pumilus [51] = assay: Antibacterial activity against Bacillus pumilus MTCC 1456 at 100 ug/ml after 18 hr by cup-plate method; settings: MTCC 1456, 18 h, read-out: DIZ
Pseudomonas aeruginosa [52] = assay: Antibacterial activity against Pseudomonas aeruginosa MTCC 424 at 200 ug/ml after 18 hr by cup-plate method; settings: MTCC 424, 18 h, read-out: DIZ
Pseudomonas aeruginosa [53] = assay: Antibacterial activity against Pseudomonas aeruginosa MTCC 424 after 24 hr by broth dilution method; settings: MTCC 424, 24 h
Micrococcus luteus [54] = assay: Antibacterial activity against Micrococcus luteus MTCC 1538 at 1500 ug/ml after 18 hr by cup-plate method; settings: MTCC 1538, 18 h, read-out: DIZ

C(=N/c1nc[nH]n1)/c1cccc2ccccc12
16 mm: zone of inhibition at 200 µg/mL (Bacillus pumilus [3]) | zone of inhibition at 1000 µg/mL (Staphylococcus aureus [34]) | zone of inhibition at 200 µg/mL (Pseudomonas fluorescens [37]) | zone of inhibition at 200 µg/mL (Bacillus subtilis [39]) | zone of inhibition at 100 µg/mL (Aspergillus niger [44])
18 mm: zone of inhibition at 1500 µg/mL (Staphylococcus aureus [25]) | zone of inhibition at 500 µg/mL (Aspergillus niger [32]) | zone of inhibition at 200 µg/mL (Escherichia coli [33]) | zone of inhibition at 1000 µg/mL (Bacillus pumilus [40]) | zone of inhibition at 500 µg/mL (Micrococcus luteus [41]) | zone of inhibition at 200 µg/mL (Penicillium chrysogenum [43]) | zone of inhibition at 500 µg/mL (Bacillus subtilis [50]) | zone of inhibition at 200 µg/mL (Pseudomonas aeruginosa [52])
21 mm: zone of inhibition at 1000 µg/mL (Pseudomonas fluorescens [13]) | zone of inhibition at 1500 µg/mL (Bacillus subtilis [15]) | zone of inhibition at 1000 µg/mL (Penicillium chrysogenum [23]) | zone of inhibition at 1000 µg/mL (Aspergillus niger [30])
17 mm: zone of inhibition at 500 µg/mL (Bacillus pumilus [5]) | zone of inhibition at 200 µg/mL (Aspergillus niger [19]) | zone of inhibition at 100 µg/mL (Escherichia coli [20]) | zone of inhibition at 100 µg/mL (Pseudomonas aeruginosa [26]) | zone of inhibition at 100 µg/mL (Penicillium chrysogenum [48])
50 mg/L: MIC (Aspergillus niger [27]) | MIC (Penicillium chrysogenum [36]) | MIC (Escherichia coli [47])
20 mm: zone of inhibition at 500 µg/mL (Penicillium chrysogenum [12]) | zone of inhibition at 1500 µg/mL (Bacillus pumilus [16]) | zone of inhibition at 1000 µg/mL (Micrococcus luteus [35]) | zone of inhibition at 500 µg/mL (Pseudomonas aeruginosa [42])
25 mm: zone of inhibition at 1500 µg/mL (Escherichia coli [14])
19 mm: zone of inhibition at 500 µg/mL (Pseudomonas fluorescens [4]) | zone of inhibition at 500 µg/mL (Escherichia coli [7]) | zone of inhibition at 1000 µg/mL (Bacillus subtilis [21])
22 mm: zone of inhibition at 1500 µg/mL (Aspergillus niger [22]) | zone of inhibition at 1000 µg/mL (Pseudomonas aeruginosa [28])
15 mm: zone of inhibition at 100 µg/mL (Bacillus subtilis [9]) | zone of inhibition at 200 µg/mL (Micrococcus luteus [46])
12 mm: zone of inhibition at 100 µg/mL (Micrococcus luteus [11]) | zone of inhibition at 100 µg/mL (Staphylococcus aureus [24])
24 mm: zone of inhibition at 1500 µg/mL (Penicillium chrysogenum [2]) | zone of inhibition at 1500 µg/mL (Pseudomonas aeruginosa [8])
13 mm: zone of inhibition at 200 µg/mL (Staphylococcus aureus [45]) | zone of inhibition at 100 µg/mL (Bacillus pumilus [51])
300 mg/L: MIC (Bacillus pumilus [1]) | MIC (Bacillus subtilis [6]) | MIC (Micrococcus luteus [10]) | MIC (Pseudomonas fluorescens [38])
200 mg/L: MIC (Pseudomonas aeruginosa [53])
14 mm: zone of inhibition at 500 µg/mL (Staphylococcus aureus [17]) | zone of inhibition at 100 µg/mL (Pseudomonas fluorescens [29])
400 mg/L: MIC (Staphylococcus aureus [31])
23 mm: zone of inhibition at 1000 µg/mL (Escherichia coli [18]) | zone of inhibition at 1500 µg/mL (Pseudomonas fluorescens [49]) | zone of inhibition at 1500 µg/mL (Micrococcus luteus [54])

— ChEMBL document CHEMBL3045835, “Comparative study of conventional and microwave-assisted synthesis of some Schiff bases and their potential as antimicrobial agents” (2012)
